The values below come from patent US9353089B2, “Compositions and methods for the treatment of malaria” (Saint Louis University, priority 2013, dated 2016).

The nature of series [1]: MLM metabolic stability assay. The following applies: pH 7.4, mouse liver microsomes, read-out: MLM t1/2. The series is classed as in vitro ADME. As for the experimental part:
(§1) In this protocol, the metabolic stability of compounds at 1 μM was determined in Mouse Liver Microsome (MLM), rat liver microsomes (RLM) or human liver microsomes (HLM). […]. After incubation at 37° C. for a specific time period (0, 5, 10, 20 and 30 min), the reaction was terminated by the addition of 200 μL ice cold acetonitrile containing internal standard (100 ng/mL) after 100 μL aliquots of reaction mixture was removed. The quenched reaction mixtures were centrifuged at 3200 rpm for 5 min, and 100 μL of the supernatant were transferred to 96-well deep plate. The samples in 96 well plate were analyzed by LC-MS/MS using an Applied Biosystems-Sciex model API 3000 mass spectrometer. The data were analyzed using the following equations. […]
(Liver microsomes are a subcellular fraction often used to study metabolism.)

Series [2] is described as follows: Rat pharmacokinetic (PK) analysis. The format is in vivo. The settings on record: for half-life: male, SD, plasma, read-out: Rat PK t1/2 (converted). As for the experimental part: Male SD rats, weighing 180-220 g (Southern China Medical University, China) were utilized for the studies. Animals were maintained on standard animal chow and water ad libitum, in a climate controlled room (23±1° C.), 30-70% relative humidity, a minimum of 10 exchanges of room air per hour and a 12-h light/dark cycle) for one week prior to experiments. The test compound was dissolved in suitable solvent. Pharmacokinetic properties were determined following i.v. and oral administration. Animals were randomly distributed into two experimental groups (n=4). The oral groups were given 5 mg/kg of the test compound by gastric gavage. The other group was dosed by injection into the tail vein (1 mg/kg). […]; 2, 10, 30 min and 1, 2, 3, 4, 6, 8, 11 and 24 h (i.v.). Whole blood samples were collected in heparinized tubes. The plasma fraction was immediately separated by centrifugation (8,000 rpm, 6 min, 4° C.) and stored at −20° C. until LC-MS analysis. The rats were humanely euthanasia by carbon dioxide 24 hours after experiment without pain.
Plasma Sample Analysis. Standard Curve Sample Preparation:
The compound was dissolved in DMSO at a concentration of 2 mg/mL and diluted with 50% methanol solution to series concentration as follow: 20, 50, 100, 500, 1000, 2000, 4000, 6000, 12000, 40000 ng/mL. 10 μL series concentration solution and 50 μL blank plasma were added to 1.5 mL tube and vortex for 3 min, then 150 μL acetonitrile containing internal standard were added and vortex for 5 min, finally spin tube in centrifuge at 16000 g for 40 min at 4° C. Plasma sample preparation: The plasma samples were prepared using protein precipitation method. […] LC/MS/MS analysis: After centrifuge, 100 μL supernatant was transfer to the 96 well plate and analyzed by LC-MS/MS using an Applied Biosystems-Sciex model API 3000 mass spectrometer. The pharmacokinetics parameters were calculated by analyzing the compound concentration in plasma samples using the pharmacokinetic software DAS.2.0.

Series [3] is described as follows: HLM metabolic stability assay. The series is classed as in vitro ADME. The following applies: pH 7.4, human liver microsomes, read-out: HLM t1/2. As for the experimental part: as §1

For the compound `COc1ccc(C2(c3ccc(OC)cc3)NC(=N)N(C3CCN(C(=O)OC(C)(C)C)CC3)C2=O)cc1` [Example 206, tert-butyl 4-[2-imino-4,4-bis(4-methoxyphenyl)-5-oxoimidazolidin-1-yl]piperidine-1-carboxylate], in series [1], the half-life at 1 μM came out at 26 min. Also, the half-life in series [2] is 72 min.
`COc1ccc(C2(c3ccc(OC)cc3)NC(=N)N(C3CCOCC3)C2=O)cc1` [Example 176, 2-imino-5,5-bis(4-methoxyphenyl)-3-(oxan-4-yl)-imidazolidin-4-one]: the “Rat PK oral bioavailability (% F)” value in series [2] (5 mg/kg oral, 1 mg/kg i.v.) turned out to be 21 % F. In addition, the half-life in series [2] is 66 min. The half-life at 1 μM in series [3] worked out at 36 min.
